In experiment [1] the target is T1, MC1-R (B-16 mouse melanoma cells) (Mus musculus, UniProt Q01727).
T1 construct: B-16 mouse melanoma cells (containing MC1-R); endogenous in cells; host or cells: B-16 mouse melanoma cells
The experiment can be described thus: competitive inhibition binding assay, 125I-NDP-α-MSH, membranes. Particulars: for inhibition at 1 µM: 1 μM compound, average of triplicates, results less than 0% reported as 0%; for Ki: read-out: Ki (nM) MC1-R. How it is done:
(§1) A competitive inhibition binding assay was conducted using membranes prepared from hMC3-R, hMC4-R, hMC5-R, and B-16 mouse melanoma cells (containing MC1-R) using 0.4 nM ^125I-NDP-α-MSH (New England Nuclear, Boston, Mass., USA) in 50 mM HEPES buffer containing 1 mM MgCl2, 2 mM CaCl2, and 5 mM KCl, at pH 7.2. The assay tube also contained a chosen concentration of the test compound of this invention, for determining its efficacy in inhibiting the binding of ^125I-NDP-α-MSH to its receptor.
(§2) Incubation was for 90 minutes at room temperature, after which the assay mixture was filtered and the membranes washed three times with ice cold buffer. The filter was dried and counted in a gamma counter for remaining radioactivity bound to the membranes. 100% specific binding was defined as the difference in radioactivity (cpm) bound to cell membranes in the absence and presence of 1 μM α-MSH. […] Each assay was conducted in triplicate and the actual mean values are described. The Ki (nM) of certain compounds of the invention were determined.

The target in experiment [2] is T2, hMC3-R (Homo sapiens, UniProt P41968).
T2 construct: expressed in transfected cells
The experiment is described as above. Particulars: for inhibition at 1 µM: 1 μM compound, average of triplicates, read-out: Inhibition at 1 μM MC3-R; for Ki: read-out: Ki (nM) MC3-R. How it is done:
as §1, §2

For experiment [3], the target named is T3, hMC4-R (Homo sapiens, UniProt P32245).
T3 construct: expressed in transfected cells
The experiment is described as above. Particulars: for inhibition at 1 µM: 1 μM compound, average of triplicates, read-out: Inhibition at 1 μM MC4-R; for Ki: read-out: Ki (nM) MC4-R. How it is done: as §1, §2

In experiment [4] the target is T4, hMC5-R (Homo sapiens, UniProt P33032).
T4 construct: expressed in transfected cells
Described as above. Particulars: for inhibition at 1 µM: 1 μM compound, average of triplicates, read-out: Inhibition at 1 μM MC5-R; for Ki: read-out: Ki (nM) MC5-R. How it is done:
as §1, §2

The target of experiment [5] is T5, MC4-R (HEK-293 cells expressing MC4-R) (Homo sapiens, UniProt P32245).
T5 construct: expressed in transfected cells; host or cells: HEK-293
The experiment can be described thus: cAMP assay for agonist/antagonist status. The format is cell-based. Particulars: antagonism = inhibition of α-MSH-induced cAMP. How it is done: (§3) Functional evaluation of compounds at melanocortin receptors was performed by measuring the accumulation of intracellular cAMP in HEK-293 cells expressing MC3-R, MC4-R or MC5-R, and in B-16 mouse melanoma cells (containing MC1-R). Cells, suspended in Earle's Balanced Salt Solution containing 10 mM HEPES, pH 7.5, 5 mM MgCl2, 1 mM glutamine, 0.1% albumin and 0.6 mM 3-isobutyl-1-methyl-xanthine, a phosphodiesterase inhibitor, were plated in 96 well plates at a density of 0.5×10^5 cells per well. Cells were incubated with the test compounds in the presence or absence of α-MSH for 1 hour at 37° C. cAMP levels were measured by EIA (Amersham) in the cell lysates. Data analysis and EC50 values were determined using nonlinear regression analysis with Prism Graph-Pad software.
(§4) The agonist/antagonist status with respect to MC4-R of certain compounds of the invention was determined. Antagonistic activity was determined by measuring the inhibition of α-MSH-induced cAMP levels following exposure to the compounds as in Example 2.

Experiment [6] in a line: ICV feeding studies, change in food intake and body weight. The format is in vivo, rat. Particulars: 1 nmol, male Sprague-Dawley rats; for change in weight: 24 hour. How it is done:
(§5) Change in food intake and body weight was evaluated for selected compounds. Male Sprague-Dawley rats weighing ˜300 g at the beginning of the experiment were kept on a 12 hour on/off light cycle. Lights out was adjusted to 12:00 p.m. to allow for dosing just prior to the start of their dark period. Rats (8-12/group) were fed powdered chow and water ad libitum. For 1 week before treatment, 24-hour food intake and body weight change was recorded to assess a baseline for the group during vehicle treatment. The rats were dosed ICV with vehicle or selected compounds (1-3 nmol). The changes in body weight and food intake for the 24 hour period after dosing were determined. The changes in body weight and food intake for the 48 hour period, and in same cases for 72 hours as well, after dosing were also measured to determined reversal of changes in body weight and food intake effect back to baseline.

Experiment [7] is described as follows: IV feeding studies, change in food intake and body weight. The experiment is classed as in vivo, rat. Particulars: 3 μg/Kg, male Sprague-Dawley rats; for change in weight: 24 hour. How it is done:
as §5, with “The rats were dosed ICV with vehicle or selected compounds (1-3 nmol).” left out

Experiment [8] has as its target T1, MC1-R (B-16 mouse melanoma cells). As to the kind of experiment: cAMP assay for agonist/antagonist status. The experiment is classed as cell-based. Particulars: antagonism = inhibition of α-MSH-induced cAMP. How it is done:
as §3, §4
(In general: cAMP levels reflect the balance of adenylyl cyclase and phosphodiesterase activity.)

Experiment [9] deals with T6, MC5-R (HEK-293 cells expressing MC5-R) (Homo sapiens, UniProt P33032).
T6 construct: expressed in transfected cells; host or cells: HEK-293
As to the kind of experiment: cAMP assay for agonist/antagonist status. Particulars: antagonism = inhibition of α-MSH-induced cAMP. The format is cell-based. How it is done:
as §3, §4

Experiment [10] in a line: penile erection (PE) studies in male rats. The format is in vivo, rat. Particulars: IV, dose levels of 0.3, 3 and 30 μg/Kg. How it is done: The ability of compounds to induce penile erection (PE) in male rats was evaluated with selected compounds. Male Sprague-Dawley rats weighing 200-250 g were kept on a 12 hour on/off light cycle with food and water ad libitum. All behavioral studies were performed between 10 a.m. and 5 p.m. Groups of 4-8 rats were treated with compounds at a variety of doses via intravenous (IV) or intracerebroventricular (ICV) routes. Immediately after treatment, rats were placed into individual polystyrene cages (27 cm long, 16 cm wide, and 25 cm high) for behavioral observation. The iv and icv treated rats were observed respectively for 30 minutes and 120 min and the number of yawns, grooming bouts and PEs were recorded in 10-minute bins.

The results in this text go back to patent publication US7732451B2, “Naphthalene-containing melanocortin receptor-specific small molecule” (Palatin Technologies, Inc., priority 2002, dated 2010).

Molecules are shown by their SMILES.

The term inhibition denotes the change of the read-out against control, counted positive when it falls. As usually defined, the Ki is the dissociation constant of the complex between target and ligand, obtained from inhibition or displacement.

T3 sequence (P32245 whole entry): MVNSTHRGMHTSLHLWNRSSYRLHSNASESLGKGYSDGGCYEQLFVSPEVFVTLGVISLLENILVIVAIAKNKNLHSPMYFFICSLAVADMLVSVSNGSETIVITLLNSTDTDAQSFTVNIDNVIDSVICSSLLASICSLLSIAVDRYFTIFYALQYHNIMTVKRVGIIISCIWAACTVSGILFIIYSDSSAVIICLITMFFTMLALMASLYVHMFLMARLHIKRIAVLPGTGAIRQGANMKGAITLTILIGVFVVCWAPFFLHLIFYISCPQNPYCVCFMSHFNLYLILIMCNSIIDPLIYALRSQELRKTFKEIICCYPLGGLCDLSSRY
T2 sequence (P41968 whole entry): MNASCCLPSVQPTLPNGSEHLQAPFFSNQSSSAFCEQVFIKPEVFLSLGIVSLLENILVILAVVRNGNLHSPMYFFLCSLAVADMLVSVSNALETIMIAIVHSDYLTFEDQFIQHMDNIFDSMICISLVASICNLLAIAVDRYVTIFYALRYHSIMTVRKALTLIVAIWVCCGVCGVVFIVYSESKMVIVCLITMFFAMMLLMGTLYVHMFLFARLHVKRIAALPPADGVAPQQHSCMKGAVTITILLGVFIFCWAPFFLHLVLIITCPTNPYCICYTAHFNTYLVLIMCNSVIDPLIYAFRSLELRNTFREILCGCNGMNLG
T1 sequence (Q01727 whole entry): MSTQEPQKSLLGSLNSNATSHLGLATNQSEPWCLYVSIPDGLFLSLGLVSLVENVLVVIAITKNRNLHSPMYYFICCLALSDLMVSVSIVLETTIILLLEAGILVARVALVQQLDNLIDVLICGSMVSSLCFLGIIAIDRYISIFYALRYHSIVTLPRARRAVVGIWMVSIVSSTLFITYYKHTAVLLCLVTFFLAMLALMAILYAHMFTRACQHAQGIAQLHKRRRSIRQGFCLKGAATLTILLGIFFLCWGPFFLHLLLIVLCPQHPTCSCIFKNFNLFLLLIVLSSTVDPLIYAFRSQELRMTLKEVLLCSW
T4 sequence (P33032 whole entry): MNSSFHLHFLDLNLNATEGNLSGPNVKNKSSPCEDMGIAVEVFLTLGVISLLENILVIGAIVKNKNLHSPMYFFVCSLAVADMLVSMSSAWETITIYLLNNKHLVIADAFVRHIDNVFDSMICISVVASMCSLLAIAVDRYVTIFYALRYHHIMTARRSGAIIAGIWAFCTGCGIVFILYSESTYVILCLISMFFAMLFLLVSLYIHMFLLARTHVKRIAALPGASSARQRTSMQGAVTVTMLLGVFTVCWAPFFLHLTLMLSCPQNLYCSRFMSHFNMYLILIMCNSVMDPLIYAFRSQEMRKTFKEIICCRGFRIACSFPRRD
T5 sequence (P32245 whole entry): as the sequence (P32245 whole entry) above
T6 sequence (P33032 whole entry): as the sequence (P33032 whole entry) above

On to `Cc1ccc(C[C@@H](N)C(=O)N2C[C@@H](C)N(CCc3ccc4ccccc4c3)C[C@@H]2CCCNC(=N)N)c(C)c1` [Example 16, N-{3-[1-[2(R)-Amino-3-(2,4-dimethyl-phenyl)-propionyl]-5(R)-methyl-4-(2-naphthalen-2-yl-ethyl)-piperazin-2(S)-yl]-propyl}-guanidine], for which the inhibition at 1 µM in experiment [1] was determined as 22%; in experiment [2] it was 67%; in experiment [3] it was 98%; in [4] it was 73%. For the same compound, the inhibition constant (Ki) in [1] stood at 1220 nM; in [2], 157 nM; in experiment [3] it was 11 nM; in experiment [4] it was 717 nM. For the same compound, the “agonist/antagonist status as to MC4-R” value in [5] is “agonist”. Besides, the “24 hour change in food intake” value was -2.6 g in experiment [6] and -7.3 g in [7]. Besides, the change in weight in experiment [6] is -5 g; in [7], -6.3 g.
Consider `C[C@@H]1CN(C(=O)[C@H](N)Cc2ccc(Cl)cc2)[C@@H](CCCNC(=N)N)CN1CCc1ccc2ccccc2c1` [Example 15, N-{3-[1-[2(R)-Amino-3-(4-chloro-phenyl)-propionyl]-5(R)-methyl-4-(2-naphthalen-2-yl-ethyl)-piperazin-2(S)-yl]-propyl}-guanidine], for which the inhibition at 1 µM in [1] amounted to 85%; in experiment [2], 61%; in experiment [3], 97%; in experiment [4], 52%. Also, the Ki in [1] worked out at 94 nM; in experiment [2], 160 nM; in experiment [3], 11 nM; in experiment [4], 551 nM. Also, the “agonist/antagonist status as to MC1-R” value in experiment [8] is reported as “agonist”. For the same compound, the “agonist/antagonist status as to MC4-R” value in experiment [5] is on record as “agonist”. In experiment [9], the “agonist/antagonist status as to MC5-R” value was “agonist”. For the same compound, the PE effect result in experiment [10] was “no observed effect”. Further, the “24 hour change in food intake” value was -3.9 g in experiment [6] and -9.6 g in experiment [7]. In addition, the change in weight in experiment [6] is -3.9 g; in experiment [7], -6.6 g.
